Read-outs that look alike come from different tables or passages of the source. Each block holds one compound with its values, some of them ahead of it.
How the values were obtained:
DNA-PK = target: T1, DNA-PK (Homo sapiens, UniProt P78527); experiment: DNA-PK Assay for Biochemical Enzymatic Inhibition (ADP Glo Kinase assay); details: Table 1
T1 construct: purchased Invitrogen PR9107A
Experimental: A biochemical assay was performed to identify IC50 values against DNA-PK activity in a two-step reaction with a kinase reaction followed by ADP Glo™ Kinase assay Kit (Promega V9102).
Three-fold serial dilutions of compounds in DMSO were prepared in kinase assay buffer (50 mM HEPES pH 7.5, 20 mM MgCl2, 100 mM KCl, 50 μM DTT, 10 μg/ml calf thymus DNA, 0.01% Tween 20). Kinase assay buffer was used to prepare compound treatments to 0.02% DMSO (dimethyl sulphoxide) content. DMSO controls were prepared to produce a maximum and minimum luminescence signal for normalization. Substrate (Anaspec, AS-60210-5) and ATP (Promega V9102) and ATP mix was prepared by dilution in kinase assay buffer for 434.4 μM and 64.4 μM final assay concentrations, respectively. Compounds and control were added to 25 ng DNA-PK enzyme (Invitrogen, PR9107A) diluted in kinase buffer in assay plate (Corning 267459) and incubated for 15 minutes at room temperature prior to addition of substrate and ATP mix.
Throughout the assay, each time a reagent was added to the microplate, it was centrifuged for 1 minute at 1300 rcf. All reagents were added, and incubations carried out at room temperature. The reaction was then incubated for 60 minutes. ADP-ATP standards at 0, 4, 10, 40, 80, and 100% ADP (prepared as specified in the ADP Glo™ Kinase assay kit) were also added to the microplate at a volume equal to the total kinase reaction. The ADP Glo™ Kinase Assay kit was then used to quantify DNA-PK activity: following the 60-minute incubation, a 1:1 volume of ADP Glo reagent was added to all wells, then following a further 45-minute incubation, a 1:1 volume of Kinase Detection Reagent was added to all wells. After this two-step assay, plates were incubated in a Synergy-Neo2 plate reader for 30 minutes with gentle shaking, followed by endpoint luminescent read Luminescence data was normalized by subtracting the background signal and expressing all background-adjusted values as a percentage of the average maximum signal. The data was then expressed as percent inhibition by subtracting from 100% (i.e. maximum luminescent signal will be 0% inhibition) and the resulting data plotted against ten concentration points on a logarithmic scale, using GraphPad Prism. Non-linear regression analysis was performed on each concentration response curve and the log [inhibitor] vs response—variable slope (four parameters) equation was selected to generate IC50 values.

[1] = target: T2, DNA-PK phosphorylation at Serine 2056 (Homo sapiens, UniProt P78527); experiment: Cellular Assay for Inhibition of DNA-PK Phosphorylation at Serine 2056 (FaDu cells, neocarzinostatin, sandwich ELISA); type: cell-based; details: Table 1
T2 construct: host or cells: FaDu
How it was run: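 FaDu cells were pretreated with compound (0.3% DMSO) for 1 h, then exposed to neocarzinostatin at 1 μg/mL final for 2 h to induce DSBs. Protein-normalized lysates were assayed by MSD sandwich ELISA for total and pSer2056 DNA-PK. IC50 came from variable-slope fits of % inhibition relative to DMSO and NCS controls.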

[2] = target: T3, pDNA-PK ser2056 induction in HCT116 spheroids (Homo sapiens, UniProt P78527); experiment: Multicellular tumour spheroid + radiation, pDNA-PK inhibition, HCT116; type: cell-based; details: 20 Gy
T3 construct: endogenous in cells; host or cells: HCT116 multicellular tumour spheroids
Experimental: Multicellular tumour spheroids determination of compound inhibition of pDNA-PK induction following radiation. Tumour spheroids were grown to approximately 0.5 mm in diameter and irradiated with 20 Gy in combination with inhibitor test compounds to determine their potency. Inhibitor concentration for 50% reduction in pDNA-PK induction (IC50) was determined via immunohistochemical staining in spheroid cryosections taken 2 hours following radiation.
Spheroid, Cell Line: […], Immunohistochemical endpoint, pDNA-PK inhibition, EC50 in μm.
(§1) Spheroid+radiation pDNA-PK. Radiation: 20 Gy. Drug: serial dilution 5 or 10 μM down to 3.5 nM (11 wells). Spheroids: 3-6 spheroids per well (300-500 μm diameter). 20% O2 and 5% CO2. 96 well plate format.
Protocol: pre-incubate 1 hours with drug, irradiate with 20 Gy, post-incubate 2 hours with drug, freeze and cryosection ×3 replicates.
Endpoint: fluorescent immunostin pDNA-PK ser2056 and image on microscope.
Analysis: determine EC50 concentration that decreases pDNA-PK induction by 50% after radiation.
Multicellular tumour spheroids determination of compound inhibition of pDNA-PK induction following radiation. Tumour spheroids were grown to approximately 0.5 mm in diameter and irradiated with 20 Gy in combination with inhibitor test compounds to determine their potency. Inhibitor concentration for 50% reduction in pDNA-PK induction (IC50) was determined via immunohistochemical staining in spheroid cryosections taken 2 hours following radiation. For cell survival endpoint 8 Gy radiation was used and 3 hours following radiation spheroids were dissociated, counted and plated for colony forming endpoint.
as §1, with “format. Endpoint: fluorescent immunostain pDNA-PK ser2056 and image on microscope. Analysis: determine EC50 concentrations that decreases pDNA-PK induction […] after irradiation.” for “format.”
Multicellular tumour spheroids were used to determine potency of test compounds in a 3D tissue environment using inhibition of pDNA-PK induction following radiation or cell survival as the endpoint. For the pDNA-PK endpoint HCT116 or FaDU tumour spheroids were grown to approximately 0.5 mm in diameter and irradiated with 20 Gy in combination with inhibitor test compounds to determine their potency. Experiments were carried out in 96 well plates containing 0.7 mls of MEM media containing 10% FBS and 10 mM glucose under 20% O2 & 5% CO2 at 37° C. Following dilution of compounds 1:1000 from DMSO stocks, compounds were serially diluted from 10 μM down to 3.5 nM and 5-10 spheroids added. 96 well plates were constantly stirred to avoid spheroids settling during the course of the experiment. The inhibitor concentration for 50% reduction in pDNA-PK induction (EC50) was determined via immunohistochemical staining in spheroid cryosections taken 2 hours following radiation using anti-pDNA-PK (ser 2056) and fixed immediately in formalin following sectioning. For cell survival endpoint 8 Gy radiation was used and, 3 hours following radiation, spheroids were dissociated, counted and plated for colony forming endpoint. Data presented in the table compound potency as EC50 [μM].

[3] = Example 7, spheroid, cell line HCT115 [sic], 20% O2, read-out: EC50 (pDNA-PK inhibition, immunohistochemical endpoint)
[4] = Example 9 Study 2, 20% O2, read-out: Spheroid Cell line: HCT116 Immunohistochemical endpoint pDNA-PK inhibition EC50
[5] = Example 8, spheroid, read-out: Cell line: HCT116 Immunohistochemical endpoint pDNA-PK inhibition EC50

SMILES: CC(C)S(=O)(=O)Nc1cnc2cc(N3CCOCC3)nc(O[C@H]3CC[C@@H](Nc4ncccn4)CC3)c2c1 [Compound 187, N-(7-morpholino-5-(((1s,4s)-4-(pyrimidin-2-ylamino)cyclohexyl)oxy)-1,6-naphthyridin-3-yl)propane-2-sulfonamide]
- IC50 (DNA-PK): 1 to 10 nM
- IC50 [1]: 1000 to 10000 nM
- EC50 [2, 3]: 10000 to 100000 nM
- EC50 [2, 4]: 10000 to 100000 nM

SMILES: Cc1c(C(F)(F)F)cnn1[C@H]1CC[C@@H](Oc2nc(N3CCOCC3)cc3ncccc23)CC1 [Compound 17h, 4-(5-(((1s,4s)-4-(5-methyl-4-(trifluoromethyl)-1H-pyrazol-1-yl)cyclohexyl)oxy)-1,6-naphthyridin-7-yl)morpholine]
- IC50 (DNA-PK): 1 to 10 nM
- IC50 [1]: 1000 to 10000 nM
- EC50 [2, 3]: 10000 to 100000 nM
- EC50 [2, 5]: 10000 to 100000 nM
- EC50 [2, 4]: 10000 to 100000 nM

SMILES: FC(F)(F)c1ccnc(N[C@H]2CC[C@@H](Oc3nc(N4CCOCC4)cc4ncccc34)CC2)n1 [Compound 47, N-((1s,4s)-4-((7-morpholino-1,6-naphthyridin-5-yl)oxy)cyclohexyl)-4-(trifluoromethyl)pyrimidin-2-amine]
- IC50 (DNA-PK): 1 to 10 nM
- IC50 [1]: < 100 nM
- EC50 [2, 3]: 1000 to 10000 nM
- EC50 [2, 4]: 1000 to 10000 nM

SMILES: Cc1cn([C@H]2CC[C@@H](Oc3nc(N4CCOCC4)cc4ncccc34)CC2)nc1C(F)(F)F [Compound 17e, 4-(5-(((1s,4s)-4-(4-methyl-3-(trifluoromethyl)-1H-pyrazol-1-yl)cyclohexyl)oxy)-1,6-naphthyridin-7-yl)morpholine]
- IC50 (DNA-PK): 1 to 10 nM
- IC50 [1]: 100 to 1000 nM
- EC50 [2, 3]: 1000 to 10000 nM
- EC50 [2, 5]: 1000 to 10000 nM

SMILES: CCCS(=O)(=O)Nc1cnc2cc(N3CCOCC3)nc(O[C@H]3CC[C@@H](Nc4ncccn4)CC3)c2c1 [Compound 189, N-(7-morpholino-5-(((1s,4s)-4-(pyrimidin-2-ylamino)cyclohexyl)oxy)-1,6-naphthyridin-3-yl)propane-1-sulfonamide]
- IC50 (DNA-PK): 1 to 10 nM
- IC50 [1]: 1000 to 10000 nM
- EC50 [2, 3]: 10000 to 100000 nM
- EC50 [2, 4]: 10000 to 100000 nM

SMILES: Cn1ccc(N[C@H]2CC[C@@H](Oc3nc(N4CCOCC4)cc4ncccc34)CC2)n1 [Compound 30, 1-methyl-N-((1s,4s)-4-((7-morpholino-1,6-naphthyridin-5-yl)oxy)cyclohexyl)-1H-pyrazol-3-amine]
- IC50 (DNA-PK): 1 to 10 nM
- IC50 [1]: 100 to 1000 nM
- EC50 [2, 3]: 10000 to 100000 nM
- EC50 [2, 4]: 10000 to 100000 nM

SMILES: CC(C)c1cnc(N[C@H]2CC[C@@H](Oc3nc(N4CCOCC4)cc4ncccc34)CC2)nc1 [Compound 33, 5-isopropyl-N-((1s,4s)-4-((7-morpholino-1,6-naphthyridin-5-yl)oxy)cyclohexyl)pyrimidin-2-amine]
- IC50 (DNA-PK): 1 to 10 nM
- IC50 [1]: < 100 nM
- EC50 [2, 3]: 1000 to 10000 nM
- EC50 [2, 4]: 1000 to 10000 nM

SMILES: O=C(N[C@H]1CC[C@@H](Oc2nc(N3CCOCC3)cc3ncccc23)CC1)C1CCCO1 (some centres unmarked) [Compound 134, N-((1s,4s)-4-((7-Morpholino-1,6-naphthyridin-5-yl)oxy)cyclohexyl)tetrahydrofuran-2-carboxamide]
- IC50 (DNA-PK): 1 to 10 nM
- IC50 [1]: 1000 to 10000 nM
- EC50 [2, 3]: 10000 to 100000 nM
- EC50 [2, 5]: 10000 to 100000 nM
- EC50 [2, 4]: 10000 to 100000 nM

SMILES: Fc1cnc(N[C@H]2CC[C@@H](Oc3nc(N4CCOCC4)cc4ncccc34)CC2)nc1 [Compound 40, 5-fluoro-N-((1s,4s)-4-((7-morpholino-1,6-naphthyridin-5-yl)oxy)cyclohexyl)pyrimidin-2-amine]
- IC50 (DNA-PK): < 0.5 nM
- IC50 [1]: 100 to 1000 nM
- EC50 [2, 3]: 1000 to 10000 nM
- EC50 [2, 4]: 1000 to 10000 nM

Results, then the compound that gave them:

- IC50 (DNA-PK): < 0.5 nM
- IC50 [1]: 1000 to 10000 nM
- EC50 [2, 3]: 500 to 1000 nM
- EC50 [2, 4]: 500 to 1000 nM
SMILES: O=C(O)c1cnc(N[C@H]2CC[C@@H](Oc3nc(N4CCOCC4)cc4ncccc34)CC2)nc1 [Compound 51, 2-(((1s,4s)-4-((7-morpholino-1,6-naphthyridin-5-yl)oxy)cyclohexyl)amino)pyrimidine-5-carboxylic acid]

- IC50 (DNA-PK): 1 to 10 nM
- IC50 [1]: 100 to 1000 nM
- EC50 [2, 3]: 1000 to 10000 nM
- EC50 [2, 4]: 1000 to 10000 nM
SMILES: c1cnc2cc(N3CCOCC3)nc(O[C@H]3CC[C@@H](Nc4ccc5ncnn5c4)CC3)c2c1 [Compound 92, N-((1s,4s)-4-((7-Morpholino-1,6-naphthyridin-5-yl)oxy)cyclohexyl)-[1,2,4]triazolo[1,5-a]pyridin-6-amine]

- IC50 (DNA-PK): 0.5 to 1 nM
- IC50 [1]: 100 to 1000 nM
- EC50 [2, 3]: 1000 to 10000 nM
- EC50 [2, 4]: 1000 to 10000 nM
SMILES: CN(C)c1ccnc(N[C@H]2CC[C@@H](Oc3nc(N4CCOCC4)cc4ncccc34)CC2)n1 [Compound 50, N4,N4-dimethyl-N2-((1s,4s)-4-((7-morpholino-1,6-naphthyridin-5-yl)oxy)cyclohexyl)pyrimidine-2,4-diamine]

- IC50 (DNA-PK): 1 to 10 nM
- IC50 [1]: 10000 to 30000 nM
- EC50 [2, 3]: 10000 to 100000 nM
- EC50 [2, 5]: 10000 to 100000 nM
SMILES: Cc1cnn([C@H]2CC[C@@H](Oc3nc(N4CCOCC4)cc4ncccc34)CC2)c1C(F)(F)F [Compound 17f, 4-(5-(((1s,4s)-4-(4-methyl-5-(trifluoromethyl)-1H-pyrazol-1-yl)cyclohexyl)oxy)-1,6-naphthyridin-7-yl)morpholine]

- IC50 (DNA-PK): 0.5 to 1 nM
- IC50 [1]: 100 to 1000 nM
- EC50 [2, 3]: 1000 to 10000 nM
- EC50 [2, 4]: 1000 to 10000 nM
SMILES: c1cnc2cc(N3CCOCC3)nc(O[C@H]3CC[C@@H](Nc4ccc5nccn5n4)CC3)c2c1 [Compound 90, N-((1s,4s)-4-((7-Morpholino-1,6-naphthyridin-5-yl)oxy)cyclohexyl)imidazo[1,2-b]pyridazin-6-amine]

- IC50 (DNA-PK): 0.5 to 1 nM
- IC50 [1]: < 100 nM
- EC50 [2, 3]: 500 to 1000 nM
- EC50 [2, 4]: 500 to 1000 nM
SMILES: CN(c1ncccn1)[C@H]1CC[C@@H](Oc2nc(N3CCOCC3)cc3ncc(NS(C)(=O)=O)cc23)CC1 [Compound 198, N-(5-(((1s,4s)-4-(methyl(pyrimidin-2-yl)amino)cyclohexyl)oxy)-7-morpholino-1,6-naphthyridin-3-yl)methanesulfonamide]
